From PubChem BioAssay AID1259407 (Chemical Carcinogenesis Research Information System (CCRIS), 2018) come the findings set out here.

The subject of the data set is CCRIS mutagenicity, Ames/micronucleus/aberration tests. The experiment in a line: CCRIS mutagenicity studies.

Calls of active or inactive are those of the source. The rule behind the calls is not given here.

In the case of `CCOC(N)=O`, the mutagenic call by setting is: (End Point: IN VITRO MICRONUCLEUS, Test System: CHL/IU CELLS, Metabolic Activation: RAT, LIVER, S-9, PHENOBARBITAL AND 5,6-BENZOFLAVONE) “inactive; negative”; (End Point: IN VITRO MICRONUCLEUS, Test System: V79 CELLS, Metabolic Activation: NONE) “inactive; negative”; (End Point: IN VIVO MICRONUCLEUS, Test System: BLOOD PERIPHERAL POLYCHROMATIC AND NORMOCHROMATIC ERYTHROCYTES, Species: MICE, Strain/Sex: CYP2E1+/+ WILD TYPE/MALE, Route: ORAL (GAVAGE)) “active; positive for both types of cells”; (End Point: IN VIVO MICRONUCLEUS, Test System: BLOOD PERIPHERAL POLYCHROMATIC AND NORMOCHROMATIC ERYTHROCYTES, Species: MOUSE, Strain/Sex: CYP2E1-/- KO (KNOCKOUT)/MALE, Route: ORAL (GAVAGE)) “inactive; negative for nce; equivocal for pce”; (End Point: IN VIVO MICRONUCLEUS, Test System: ERYTHROCYTES, Species: MOUSE, Strain/Sex: WILD-TYPE (CYP2E1+/+, WT)/MALE, Route: GAVAGE) “active; positive; significant dose-dependent increase in both polychromatic and normochr”; (End Point: IN VIVO MICRONUCLEUS, Test System: PERIPHERAL BLOOD ERYTHROCYTES, Species: MOUSE, Strain/Sex: KNOCK OUT (CYP2E1-/-, KO)/MALE, Route: GAVAGE) “inactive; negative (normochromatic erythrocytes); authors described results in polychromat”. Besides, the mutagenic call (Test System: AMES SALMONELLA TYPHIMURIUM, Strain/Indicator: TA97, Metabolic Activation: HAMSTER, LIVER, S-9, AROCLOR 1254 (30%), Method: PREINCUBATION) was “inactive; negative”; the mutagenic call (Test System: AMES SALMONELLA TYPHIMURIUM, Strain/Indicator: TA97, Metabolic Activation: NONE, Method: PREINCUBATION) was “inactive; negative”; the mutagenic call (Test System: AMES SALMONELLA TYPHIMURIUM, Strain/Indicator: TA97, Metabolic Activation: RAT, LIVER, S-9, AROCLOR 1254 (30%), Method: PREINCUBATION) was “inactive; negative”; the mutagenic call (Test System: AMES SALMONELLA TYPHIMURIUM, Strain/Indicator: TA98, Metabolic Activation: HAMSTER, LIVER, S-9, AROCLOR 1254 (30%), Method: PREINCUBATION) was “inactive; negative”; the mutagenic call (Test System: AMES SALMONELLA TYPHIMURIUM, Strain/Indicator: TA98, Metabolic Activation: NONE, Method: PREINCUBATION) was “inactive; negative”; the mutagenic call (Test System: AMES SALMONELLA TYPHIMURIUM, Strain/Indicator: TA98, Metabolic Activation: RAT LIVER S-9, AROCLOR 1254, Method: PREINCUBATION) is “inactive; negative”. The mutagenic call was “inactive; negative” (Test System: AMES SALMONELLA TYPHIMURIUM, Strain/Indicator: TA98, Metabolic Activation: RAT, LIVER, S-9, AROCLOR 1254 (30%), Method: PREINCUBATION); “inactive; negative” (Test System: AMES SALMONELLA TYPHIMURIUM, Strain/Indicator: TA98, Metabolic Activation: RAT, LIVER, S-9, ETHANOL, Method: PREINCUBATION); “inactive; negative” (Test System: AMES SALMONELLA TYPHIMURIUM, Strain/Indicator: TA98, Metabolic Activation: RAT, LIVER, S-9, PYRAZOLE, Method: PREINCUBATION); “inactive; negative” (Test System: AMES SALMONELLA TYPHIMURIUM, Strain/Indicator: TA98, Metabolic Activation: RAT, LIVER, S-9, Method: STANDARD PLATE); “inactive; negative” (Test System: AMES SALMONELLA TYPHIMURIUM, Strain/Indicator: TA100, Metabolic Activation: HAMSTER, LIVER, S-9, AROCLOR 1254 (5, 10 OR 30%), Method: PREINCUBATION); “inactive; negative” (Test System: AMES SALMONELLA TYPHIMURIUM, Strain/Indicator: TA100, Metabolic Activation: NONE, Method: PREINCUBATION). Further, the mutagenic call by setting is: (Test System: AMES SALMONELLA TYPHIMURIUM, Strain/Indicator: TA100, Metabolic Activation: RAT LIVER S-9, AROCLOR 1254, Method: PREINCUBATION) “inactive; negative”; (Test System: AMES SALMONELLA TYPHIMURIUM, Strain/Indicator: TA100, Metabolic Activation: RAT, LIVER, S-9, AROCLOR 1254 (5, 10 OR 30%), Method: PREINCUBATION) “inactive; negative”; (Test System: AMES SALMONELLA TYPHIMURIUM, Strain/Indicator: TA100, Metabolic Activation: RAT, LIVER, S-9, ETHANOL, Method: PREINCUBATION) “inactive; negative”; (Test System: AMES SALMONELLA TYPHIMURIUM, Strain/Indicator: TA100, Metabolic Activation: RAT, LIVER, S-9, PYRAZOLE, Method: PREINCUBATION) “inactive; negative”; (Test System: AMES SALMONELLA TYPHIMURIUM, Strain/Indicator: TA100, Metabolic Activation: RAT, LIVER, S-9, Method: STANDARD PLATE) “inactive; negative”; (Test System: AMES SALMONELLA TYPHIMURIUM, Strain/Indicator: TA102, Metabolic Activation: NONE, Method: PREINCUBATION) “inactive; negative”. The mutagenic call is, setting by setting: (Test System: AMES SALMONELLA TYPHIMURIUM, Strain/Indicator: TA102, Metabolic Activation: RAT LIVER S-9, AROCLOR 1254, Method: PREINCUBATION) “inactive; negative”; (Test System: AMES SALMONELLA TYPHIMURIUM, Strain/Indicator: TA102, Metabolic Activation: RAT LIVER S-9, PHENOBARBITAL AND 5,6-BENZOFLAVONE, Method: STANDARD PLATE) “inactive; negative”; (Test System: AMES SALMONELLA TYPHIMURIUM, Strain/Indicator: TA102, Metabolic Activation: RAT, LIVER, S-9, ETHANOL, Method: PREINCUBATION) “inactive; negative”; (Test System: AMES SALMONELLA TYPHIMURIUM, Strain/Indicator: TA102, Metabolic Activation: RAT, LIVER, S-9, PYRAZOLE, Method: PREINCUBATION) “inactive; negative”; (Test System: AMES SALMONELLA TYPHIMURIUM, Strain/Indicator: TA1535, Metabolic Activation: HAMSTER, LIVER, S-9, AROCLOR 1254 (30%), Method: PREINCUBATION) “active; positive”; (Test System: AMES SALMONELLA TYPHIMURIUM, Strain/Indicator: TA1535, Metabolic Activation: NONE, Method: PREINCUBATION) “inactive; negative”. Also, the mutagenic call (Test System: AMES SALMONELLA TYPHIMURIUM, Strain/Indicator: TA1535, Metabolic Activation: RAT, LIVER, S-9, AROCLOR 1254 (5 OR 10%), Method: PREINCUBATION) was “inactive; negative”; the mutagenic call (Test System: AMES SALMONELLA TYPHIMURIUM, Strain/Indicator: TA1535, Metabolic Activation: RAT, LIVER, S-9, AROCLOR 1254 (30%), Method: PREINCUBATION) is “inactive; negative”; the mutagenic call (Test System: AMES SALMONELLA TYPHIMURIUM, Strain/Indicator: TA1535, Metabolic Activation: RAT, LIVER, S-9, ETHANOL, Method: PREINCUBATION) was “inactive; negative”; the mutagenic call (Test System: AMES SALMONELLA TYPHIMURIUM, Strain/Indicator: TA1535, Metabolic Activation: RAT, LIVER, S-9, PYRAZOLE, Method: PREINCUBATION) was “inactive; negative”; the mutagenic call (Test System: AMES SALMONELLA TYPHIMURIUM, Strain/Indicator: TA1537, Metabolic Activation: HAMSTER, LIVER, S-9, AROCLOR 1254 (30%), Method: PREINCUBATION) was “inactive; negative”; the mutagenic call (Test System: AMES SALMONELLA TYPHIMURIUM, Strain/Indicator: TA1537, Metabolic Activation: NONE, Method: PREINCUBATION) is “inactive; negative”. Moreover, the mutagenic call runs as follows: (Test System: AMES SALMONELLA TYPHIMURIUM, Strain/Indicator: TA1537, Metabolic Activation: RAT, LIVER, S-9, AROCLOR 1254 (30%), Method: PREINCUBATION) “inactive; negative”; (Test System: AMES SALMONELLA TYPHIMURIUM, Strain/Indicator: TA1537, Metabolic Activation: RAT, LIVER, S-9, PYRAZOLE, Method: PREINCUBATION) “inactive; negative”; (Test System: AMES SALMONELLA TYPHIMURIUM, Strain/Indicator: TA2638, Metabolic Activation: RAT LIVER S-9, PHENOBARBITAL AND 5,6-BENZOFLAVONE, Method: STANDARD PLATE) “inactive; negative”; (Test System: Ames Salmonella typhimurium, Strain/Indicator: YG7108pin3ERb5, Metabolic Activation: None, Method: Standard plate) “inactive; negative”; (Test System: E. COLI, Strain/Indicator: WP2 (PKM101), Metabolic Activation: RAT LIVER S-9, PHENOBARBITAL AND 5,6-BENZOFLAVONE, Method: STANDARD PLATE) “inactive; negative”; (Test System: E. COLI, Strain/Indicator: WP2 UVRA (PKM101), Metabolic Activation: RAT LIVER S-9, PHENOBARBITAL AND 5,6-BENZOFLAVONE, Method: STANDARD PLATE) “inactive; negative”. Further, the mutagenic call is “inactive; negative” (Test System: E. COLI, Strain/Indicator: WP2 UVRA, Metabolic Activation: NONE, Method: FLUCTUATION TEST); “inactive; negative” (Test System: MOUSE LYMPHOMA, Strain/Indicator: L5178Y (TK+/TK-), Metabolic Activation: NONE, Method: MICROWELL); “inactive; negative” (Test System: MOUSE LYMPHOMA, Strain/Indicator: L5178Y (TK+/TK-), Metabolic Activation: S-9, Method: MICROWELL); “active; positive” (Test System: UDS MOUSE SPERMATIDS, Strain/Indicator: THY INCORP, Metabolic Activation: NONE).
On to `O[C@H]1C=Cc2c(ccc3cc4c5c(ccc4cc23)[C@H](O)[C@@H](O)C=C5)[C@@H]1O`, for which, under “Test System: AMES SALMONELLA TYPHIMURIUM, Strain/Indicator: TA100, Metabolic Activation: RAT, LIVER, S-9, AROCLOR 1254, Method: STANDARD PLATE”, the mutagenic call was “inactive; negative”.
